Assay results as given in patent publication US20220193081A1 (Ellamed IP & Services PTE. LTD., priority 2019, published 2022).
Like-named read-outs stand apart in the source and are kept apart here.

Format: physicochemical
Description: 840 mg of sildenafil base (Carbosynth) was introduced into 40 ml of 50% aqueous ethanol at an unadjusted pH of 7.7. […] Finally, the pH of the mixture was further lowered to a pH of approximately 4 by the introduction of additional 1M HCl upon which the mixture began to solubilize.
840 mg of sildenafil base (Carbosynth), together with 840 mg of sucralose was introduced into 40 ml of 50% aqueous ethanol at an unadjusted pH of 7.7. […] The pH of the mixture was further lowered to a pH of approximately 4.6 by the introduction of additional 1M HCl upon which the mixture began to solubilize. Additional 1M HCl was added to the mixture until it completely solubilized at a pH of 3.83.
945 mg of sildenafil base (Carbosynth), together with 945 mg of sucralose was introduced into 45 ml of 50% aqueous ethanol at an unadjusted pH of 7.7. […] The pH of the mixture was then lowered to by the stepwise introduction of 1M HCl during stirring until the mixture was fully solubilized at pH 4.92.

CCCc1nn(C)c2c(=O)[nH]c(-c3cc(S(=O)(=O)N4CCN(C)CC4)ccc3OCC)nc12 [sildenafil base]
pH at which the mixture completely solubilized: 3.83 | pH at which the mixture was fully solubilized: 4.92 | dissolution (Example 1a: 840 mg in 40 ml, pH 5.6 (1M HCl), stirred 10 minutes): remaining opaque and undissolved | dissolution (Example 1a: 840 mg in 40 ml, stirred at pH 4.25 for 1 hour, final pH 4.28): totally transparent and without precipitate | dissolution (Example 1a: 840 mg in 40 ml, unadjusted pH 7.7, stirring 10 minutes): remained undissolved | dissolution (Example 1b: 840 mg with 840 mg sucralose in 40 ml, pH 5.6 (1M HCl), stirred 10 minutes): remaining opaque and undissolved | dissolution (Example 1b: 840 mg with 840 mg sucralose in 40 ml, unadjusted pH 7.7, stirring 10 minutes): remained undissolved | dissolution (Example 1c: 945 mg with 945 mg sucralose in 45 ml, unadjusted pH 7.7, stirring 10 minutes): remained undissolved
